Assay [1] concerns EGFR Del19/T790M/C797S (BaF3-DTC cells). Briefly: EGFR degradation HTRF assay, BaF3-DTC cells. It counts as cell-based. The settings on record: 16h treatment; for DTC Dmax (%): maximum percentage of degradation; for DC50: read-out: DTC DC50. Put shortly:
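BaF3 (WT, Del19/T790M/C797S) and HCC827 cells exposed 16 h at 37 °C, 5% CO2 to compounds in 0.2% DMSO medium, 8 doses from 10 uM top, 5-fold steps. Lysates read by HTRF (665/620 nm); degradation % vs DMSO control, DC50 from four-parameter fit, Dmax as maximal degradation.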

Assay [2] addresses T1, EGFR L858R/T790M/C797S (BaF3-LTC cells) (Homo sapiens, UniProt P00533, C797S/L858R/T790M).
T1 construct: expressed in transfected cells; host or cells: BaF3
Description: EGFR degradation HTRF assay, BaF3-LTC cells. The assay is classed as cell-based. The following applies: BaF3-LTC, 16h treatment; for Dmax: maximum percentage of degradation, read-out: LTC Dmax (%); for DC50: read-out: LTC DC50. Put shortly: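 EGFR remaining after a 16 h, 37 °C exposure (8 doses, 5-fold steps from 10 uM final, 0.2% DMSO) was quantified by HTRF antibodies in cell lysate. Percent inhibition relative to DMSO control was fitted by four-parameter logistic to give DC50; Dmax denotes maximal degradation.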

SMILES strings stand for the structures.

T1 sequence (P00533 25-1210 T790M/C797S/L858R): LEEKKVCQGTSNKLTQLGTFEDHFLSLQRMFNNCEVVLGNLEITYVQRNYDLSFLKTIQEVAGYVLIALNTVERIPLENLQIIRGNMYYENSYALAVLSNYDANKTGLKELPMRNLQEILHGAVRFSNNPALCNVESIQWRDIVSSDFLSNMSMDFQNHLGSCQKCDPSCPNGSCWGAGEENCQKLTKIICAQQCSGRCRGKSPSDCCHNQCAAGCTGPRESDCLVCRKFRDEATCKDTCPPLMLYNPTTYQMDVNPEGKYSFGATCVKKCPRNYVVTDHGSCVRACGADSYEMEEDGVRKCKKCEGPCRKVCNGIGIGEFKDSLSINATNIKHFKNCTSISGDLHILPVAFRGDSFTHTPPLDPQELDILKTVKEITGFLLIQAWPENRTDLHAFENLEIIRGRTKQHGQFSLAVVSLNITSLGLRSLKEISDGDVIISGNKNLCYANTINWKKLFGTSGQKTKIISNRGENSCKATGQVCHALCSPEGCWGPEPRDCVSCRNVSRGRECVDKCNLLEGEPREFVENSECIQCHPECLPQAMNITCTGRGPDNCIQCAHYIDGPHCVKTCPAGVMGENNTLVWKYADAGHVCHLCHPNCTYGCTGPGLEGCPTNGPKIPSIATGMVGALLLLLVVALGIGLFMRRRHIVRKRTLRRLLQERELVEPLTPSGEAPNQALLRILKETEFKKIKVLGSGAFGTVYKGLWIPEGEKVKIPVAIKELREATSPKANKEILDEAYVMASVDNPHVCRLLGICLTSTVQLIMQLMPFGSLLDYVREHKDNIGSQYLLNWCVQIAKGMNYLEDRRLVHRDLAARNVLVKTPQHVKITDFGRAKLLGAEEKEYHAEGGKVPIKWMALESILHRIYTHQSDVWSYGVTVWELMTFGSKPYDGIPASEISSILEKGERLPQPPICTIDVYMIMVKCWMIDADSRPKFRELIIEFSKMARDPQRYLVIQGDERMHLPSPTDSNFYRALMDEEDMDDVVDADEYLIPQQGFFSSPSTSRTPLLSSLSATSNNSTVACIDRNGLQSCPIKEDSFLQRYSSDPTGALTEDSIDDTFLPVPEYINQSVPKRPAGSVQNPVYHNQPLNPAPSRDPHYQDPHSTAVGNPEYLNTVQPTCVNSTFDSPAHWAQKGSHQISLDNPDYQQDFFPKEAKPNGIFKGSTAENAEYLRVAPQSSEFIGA

As to `CCc1cc(Nc2ncc(Br)c(Nc3ccc4nc(C)ccc4c3P(C)(C)=O)n2)c(OC)cc1N1CCC(N2CCN(CCCOc3cc(F)c(C4CCC(=O)NC4=O)c(F)c3)CC2)CC1` (centres unmarked) [Example 704, 3-(4-(3-(4-(1-(4-((5-bromo-4-((5-(dimethylphosphoryl)-2-methylquinolin-6-yl)amino)pyrimidin-2-yl)amino)-2-ethyl-5-methoxyphenyl)piperidin-4-yl)piperazin-1-yl)propoxy)-2,6-difluorophenyl)piperidine-2,6-dione], in assay [1], the “DTC Dmax (%)” value is 82.31% and the DC50 worked out at 3.98 nM. In assay [2], the Dmax was 90.4% and the DC50 was determined as 21.9 nM.
Taken in the same sequence, the figures for `COc1cc(N2CCN(C3CN(C(=O)c4cnc(C(=O)Nc5ccc(C6CCC(=O)NC6=O)cc5)cn4)C3)CC2)c(C)cc1Nc1ncc(Br)c(Nc2ccc3nccnc3c2P(C)(C)=O)n1` (centres unmarked) [Example 723, 5-(3-(4-(4-((5-bromo-4-((5-(dimethylphosphoryl)quinoxalin-6-yl)amino)pyrimidin-2-yl)amino)-5-methoxy-2-methylphenyl)piperazin-1-yl)azetidine-1-carbonyl)-N-(4-(2,6-dioxopiperidin-3-yl)phenyl)pyrazine-2-carboxamide] were 76.49%, 5.67 nM, 81.7% and 12.1 nM.
Take `CCc1cc(Nc2ncc(Br)c(Nc3ccc4nccnc4c3P(C)(C)=O)n2)c(OC)cc1N1CCC(N2CCN(C(=O)[C@H]3CCN(c4cccc(C5CCC(=O)NC5=O)c4)C3)CC2)CC1` (stereo partly drawn) [Example 225, 3-(3-((S)-3-(4-(1-(4-((5-bromo-4-((5-(dimethylphosphoryl)quinoxalin-6-yl)amino)pyrimidin-2-yl)amino)-2-ethyl-5-methoxyphenyl)piperidin-4-yl)piperazine-1-carbonyl)pyrrolidin-1-yl)phenyl)piperidine-2,6-dione]: in assay [1], the “DTC Dmax (%)” value amounted to 89.48% and the DC50 was 6.98 nM. Further, in assay [2], the Dmax was found to be 79.2% and the DC50 came out at 48.9 nM.
On the same counts, the results for `CCc1cc(Nc2ncc(Br)c(Nc3ccc4nc(C(F)(F)F)ccc4c3P(C)(C)=O)n2)c(OC)cc1N1CCC(N2CCN(CCc3cc(F)c(C4CCC(=O)NC4=O)c(F)c3)CC2)CC1` (centres unmarked) [Example 435, 3-(4-(2-(4-(1-(4-((5-bromo-4-((5-(dimethylphosphoryl)-2-(trifluoromethyl)quinolin-6-yl)amino)pyrimidin-2-yl)amino)-2-ethyl-5-methoxyphenyl)piperidin-4-yl)piperazin-1-yl)ethyl)-2,6-difluorophenyl)piperidine-2,6-dione] are 92.59%, 7.48 nM, 89.9% and 23.9 nM.
Taken in the same sequence, the figures for `CCc1cc(Nc2ncc(Br)c(Nc3ccc4nccnc4c3P(C)(C)=O)n2)c(OC)cc1N1CCC(N2CCN(C[C@@H]3CCN(c4ccc5c(c4)CN(C4CCC(=O)NC4=O)C5=O)C3)CC2)CC1` (stereo partly drawn) [Example 234, 3-(5-((S)-3-((4-(1-(4-((5-bromo-4-((5-(dimethylphosphoryl)quinoxalin-6-yl)amino)pyrimidin-2-yl)amino)-2-ethyl-5-methoxyphenyl)piperidin-4-yl)piperazin-1-yl)methyl)pyrrolidin-1-yl)-1-oxoisoindolin-2-yl)piperidine-2,6-dione] were 90.55%, 4.19 nM, 87.8% and 15.8 nM.
On the same counts, the results for `CCc1cc(Nc2ncc(Br)c(Nc3ccc4nc(C)ccc4c3P(C)(C)=O)n2)c(OC)cc1N1CCC(N2CCN(CCC3CCN(c4cc(F)c(C5CCC(=O)NC5=O)c(F)c4)CC3)CC2)CC1` (centres unmarked) [Example 312, 3-(4-(4-(2-(4-(1-(4-((5-bromo-4-((5-(dimethylphosphoryl)-2-methylquinolin-6-yl)amino)pyrimidin-2-yl)amino)-2-ethyl-5-methoxyphenyl)piperidin-4-yl)piperazin-1-yl)ethyl)piperidin-1-yl)-2,6-difluorophenyl)piperidine-2,6-dione] are 88.59%, 8.17 nM, 86.1% and 16.1 nM.
For `CCc1cc(Nc2ncc(Br)c(Nc3ccc4nccnc4c3P(C)(C)=O)n2)c(OC)cc1N1CCC(N2CCN(CC3CN(c4ccc(C5CCC(=O)NC5=O)c(F)c4)C3)CC2)CC1` (centres unmarked) [Example 252, 3-(4-(3-((4-(1-(4-((5-bromo-4-((5-(dimethylphosphoryl)quinoxalin-6-yl)amino)pyrimidin-2-yl)amino)-2-ethyl-5-methoxyphenyl)piperidin-4-yl)piperazin-1-yl)methyl)azetidin-1-yl)-2-fluorophenyl)piperidine-2,6-dione], in assay [1], the “DTC Dmax (%)” value was found to be 85.86% and the DC50 came out at 17.1 nM. Also, in assay [2], the Dmax amounted to 80.8% and the DC50 was found to be 34.8 nM.
On the same counts, the results for `CCc1cc(Nc2ncc(Br)c(Nc3ccc4nccnc4c3P(C)(C)=O)n2)c(OC)cc1N1CCC(N2CCN(CCc3cc(F)c(C4CCC(=O)NC4=O)cc3F)CC2)CC1` (centres unmarked) [Example 233, 3-(4-(2-(4-(1-(4-((5-bromo-4-((5-(dimethylphosphoryl)quinoxalin-6-yl)amino)pyrimidin-2-yl)amino)-2-ethyl-5-methoxyphenyl)piperidin-4-yl)piperazin-1-yl)ethyl)-2,5-difluorophenyl)piperidine-2,6-dione] are 86.57%, 13.1 nM, 80.6% and 35.3 nM.
Turning to `COc1cc(N2CCN(C3CN(CCC4CCN(c5cc(F)c(C6CCC(=O)NC6=O)c(F)c5)CC4)C3)CC2)c(C)cc1Nc1ncc(Br)c(Nc2ccc3nccnc3c2P(C)(C)=O)n1` (centres unmarked) [Example 204, 3-(4-(4-(2-(3-(4-(4-((5-bromo-4-((5-(dimethylphosphoryl)quinoxalin-6-yl)amino)pyrimidin-2-yl)amino)-5-methoxy-2-methylphenyl)piperazin-1-yl)azetidin-1-yl)ethyl)piperidin-1-yl)-2,6-difluorophenyl)piperidine-2,6-dione], in assay [1], the “DTC Dmax (%)” value is 91.45% and the DC50 was 15.6 nM. In assay [2], the Dmax turned out to be 85.7% and the DC50 was 31 nM.
Taken in the same sequence, the figures for `CCc1cc(Nc2ncc(Br)c(Nc3ccc4nccnc4c3P(C)(C)=O)n2)c(OC)cc1N1CCC(N2CCN(C3CN(c4ccc(C5CCC(=O)NC5=O)cc4)C3)CC2)CC1` (centres unmarked) [Example 250] were 75.19%, 11.1 nM, 73.8% and 24.8 nM.
Taken in the same sequence, the figures for `CCc1cc(Nc2ncc(Br)c(Nc3ccc4nccnc4c3P(C)(C)=O)n2)c(OC)cc1N1CCC(N2CCN(C(=O)C3CN(c4ccc5c(c4)C(=O)N(C4CCC(=O)NC4=O)C5)C3)CC2)CC1` (centres unmarked) [Example 227, 3-(6-(3-(4-(1-(4-((5-bromo-4-((5-(dimethylphosphoryl)quinoxalin-6-yl)amino)pyrimidin-2-yl)amino)-2-ethyl-5-methoxyphenyl)piperidin-4-yl)piperazine-1-carbonyl)azetidin-1-yl)-1-oxoisoindolin-2-yl)piperidine-2,6-dione] were 90.5%, 4.87 nM, 91.8% and 10.3 nM.
On the same counts, the results for `CCc1cc(Nc2ncc(Br)c(Nc3ccc4nccnc4c3P(C)(C)=O)n2)c(OC)cc1N1CCC(N2CCN(C3CCN(c4ccc(C5CCC(=O)NC5=O)cc4)CC3)CC2)CC1` (centres unmarked) [Example 299, 3-(4-(4-(4-(1-(4-((5-bromo-4-((5-(dimethylphosphoryl)quinoxalin-6-yl)amino)pyrimidin-2-yl)amino)-2-ethyl-5-methoxyphenyl)piperidin-4-yl)piperazin-1-yl)piperidin-1-yl)phenyl)piperidine-2,6-dione] are 80.72%, 4.88 nM, 85% and 36.4 nM.
In the case of `CCc1cc(Nc2ncc(Br)c(Nc3ccc4ncc(F)cc4c3P(C)(C)=O)n2)c(OC)cc1N1CCC(N2CCN(CCc3cc(F)c(C4CCC(=O)NC4=O)c(F)c3)CC2)CC1` (centres unmarked) [Example 336, 3-(4-(2-(4-(1-(4-((5-bromo-4-((5-(dimethylphosphoryl)-3-fluoroquinolin-6-yl)amino)pyrimidin-2-yl)amino)-2-ethyl-5-methoxyphenyl)piperidin-4-yl)piperazin-1-yl)ethyl)-2,6-difluorophenyl)piperidine-2,6-dione], in assay [1], the “DTC Dmax (%)” value is given as 94.98% and the DC50 was 0.984 nM. Also, in assay [2], the Dmax turned out to be 88.5% and the DC50 worked out at 9.91 nM.
On the same counts, the results for `COc1cc(N2CCC(N3CCN(CCC4CCN(c5cc(F)c(C6CCC(=O)NC6=O)c(F)c5)CC4)CC3)CC2)ccc1Nc1ncc(Br)c(Nc2ccc3nc(C)ccc3c2P(C)(C)=O)n1` (centres unmarked) [Example 218, 3-(4-(4-(2-(4-(1-(4-((5-bromo-4-((5-(dimethylphosphoryl)-2-methylquinolin-6-yl)amino)pyrimidin-2-yl)amino)-3-methoxyphenyl)piperidin-4-yl)piperazin-1-yl)ethyl)piperidin-1-yl)-2,6-difluorophenyl)piperidine-2,6-dione] are 97.83%, 2.9 nM, 87.3% and 9.19 nM.

The values are drawn from patent US20230265116A1, “DEGRADATION OF (EGFR) BY CONJUGATION OF EGFR INHIBITORS WITH E3 LIGASE LIGAND AND METHODS OF USE” (BEIGENE, LTD., priority 2020, published 2023).
